Source: ChEMBL document CHEMBL1201862, “PubChem BioAssay data set” (2004)
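In this assay, cells in 96-well plates receive the compound at five concentrations for 48 hours. Endpoints are linearly interpolated between the surrounding concentrations. GI50 = concentration required for 50% inhibition of growth.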 Active and inactive are the calls of the source. No stated cut-off is given here; in the data, active = GI50 up to about 1.1 µM and inactive = higher.

Tests used:
Assay in all cases: NCI tumour cell line growth inhibition, 48 h
SF-295 = test system: SF-295
MOLT-4 = test system: MOLT-4
LXFL 529 = test system: LXFL 529
UACC-62 = test system: UACC-62
UACC-257 = test system: UACC-257
COLO 205 = test system: COLO 205
HCT-15 = test system: HCT-15
KM-20L2 = test system: KM-20L2
OVCAR-5 = test system: OVCAR-5
RXF 631 = test system: RXF 631
SR = test system: SR
K562 = test system: K562
KM12 = test system: KM12
SF-539 = test system: SF-539
UO-31 = test system: UO-31
RXF 393 = test system: RXF 393
LOX IMVI = test system: LOX IMVI
EKVX = test system: EKVX
M14 = test system: M14
Malme-3M = test system: Malme-3M
XF498 = test system: XF498
HOP-92 = test system: HOP-92
U-251 = test system: U-251
SNB-19 = test system: SNB-19
HCT-116 = test system: HCT-116
HL-60 = test system: HL-60
SK-OV-3 = test system: SK-OV-3
NCI-H522 = test system: NCI-H522
OVCAR-8 = test system: OVCAR-8
SK-MEL-2 = test system: SK-MEL-2
NCI-H460 = test system: NCI-H460
CCRF-CEM = test system: CCRF-CEM
M19-MEL = test system: M19-MEL
786-0 = test system: 786-0
NCI-H23 = test system: NCI-H23
DLD-1 = test system: DLD-1
OVCAR-3 = test system: OVCAR-3
HCC 2998 = test system: HCC 2998
CAKI-1 = test system: CAKI-1
RPMI-8226 = test system: RPMI-8226
HT-29 = test system: HT-29
SN12C = test system: SN12C
NCI-H226 = test system: NCI-H226
HOP-62 = test system: HOP-62
IGROV-1 = test system: IGROV-1
SNB-75 = test system: SNB-75
DMS-273 = test system: DMS-273
SW-620 = test system: SW-620
OVCAR-4 = test system: OVCAR-4
ACHN = test system: ACHN
SF-268 = test system: SF-268
A549 = test system: A549
SNB-78 = test system: SNB-78
A498 = test system: A498
SK-MEL-28 = test system: SK-MEL-28
DMS-114 = test system: DMS-114
TK-10 = test system: TK-10
SK-MEL-5 = test system: SK-MEL-5

Measured: GI50

C1=CC=C2NCCCCCCC/N=C3/C=CC=CC=C3NCCCCCCC/N=C\2C=C1
> 100 µM: HCT-15
inactive: SF-295 47.5 µM | MOLT-4 31 µM | LXFL 529 > 100 µM | UACC-62 10 µM | UACC-257 > 100 µM | COLO 205 > 100 µM | KM-20L2 30.5 µM | OVCAR-5 > 100 µM | RXF 631 13 µM | SR 63.5 µM | K562 30.1 µM | KM12 > 100 µM | SF-539 30.9 µM | UO-31 > 100 µM | RXF 393 16.9 µM | LOX IMVI 54.2 µM | EKVX > 100 µM | M14 10 µM | Malme-3M > 100 µM | XF498 > 100 µM | HOP-92 33.9 µM | U-251 10 µM | SNB-19 > 100 µM | HCT-116 39.1 µM | HL-60 43.5 µM | SK-OV-3 10 µM | NCI-H522 52.5 µM | OVCAR-8 40.1 µM | SK-MEL-2 > 100 µM | NCI-H460 25.4 µM | CCRF-CEM 36.8 µM | M19-MEL > 100 µM | 786-0 > 100 µM | NCI-H23 11.9 µM | DLD-1 49.4 µM | OVCAR-3 10 µM | HCC 2998 > 100 µM | CAKI-1 > 100 µM | RPMI-8226 35.9 µM | HT-29 37.5 µM | SN12C > 100 µM | NCI-H226 > 100 µM | HOP-62 10 µM | IGROV-1 10 µM | SNB-75 25.8 µM | DMS-273 19.1 µM | SW-620 79.6 µM | OVCAR-4 64.3 µM | ACHN 85.7 µM | SF-268 > 100 µM | A549 > 100 µM

Clc1ccc2nc(-c3ccccc3)nc(Cl)c2c1
inactive: SF-295 46.3 µM | MOLT-4 > 100 µM | LXFL 529 52.7 µM | UACC-62 49.8 µM | UACC-257 45 µM | COLO 205 > 100 µM | KM-20L2 > 100 µM | OVCAR-5 > 100 µM | RXF 631 29.6 µM | SR > 100 µM | K562 > 100 µM | KM12 > 100 µM | SNB-78 88.1 µM | SF-539 46.6 µM | UO-31 > 100 µM | RXF 393 26.1 µM | EKVX 29.2 µM | Malme-3M 24.2 µM | A498 > 100 µM | HOP-92 25.4 µM | U-251 68.1 µM | SNB-19 69.2 µM | HCT-116 73.6 µM | HL-60 12.5 µM | SK-OV-3 12.3 µM | SK-MEL-28 80.5 µM | OVCAR-8 37 µM | SK-MEL-2 45.6 µM | NCI-H460 87.9 µM | CCRF-CEM 38.6 µM | M19-MEL 58.2 µM | 786-0 33 µM | DMS-114 39.3 µM | NCI-H23 69.2 µM | DLD-1 60.1 µM | OVCAR-3 49.2 µM | TK-10 21.7 µM | HCC 2998 40.2 µM | CAKI-1 21.1 µM | RPMI-8226 > 100 µM | HT-29 > 100 µM | SN12C > 100 µM | NCI-H226 34 µM | HOP-62 23.9 µM | IGROV-1 > 100 µM | SNB-75 22.1 µM | DMS-273 55.5 µM | SW-620 > 100 µM | ACHN 24.9 µM | SF-268 52.8 µM | A549 50.6 µM | SK-MEL-5 > 100 µM
> 100 µM: HCT-15
